Where two headings read alike, the source gives them in different places. Some results are limits rather than exact numbers.

The values that follow come from patent US20260248784A1, “BTK Degrader and Use Thereof” (JIANGSU VCARE PHARMATECH CO., LTD., priority 2023, published 2026).

Series [1] has as its system Mino cell xenograft. The experiment in a line: Activity test in Mino cell xenograft model. It counts as in vivo, NOD SCID mice. The settings on record: for Tumor volume: end of experiment, Mean ± SD.
Series [2] in a line: Brain tissue distribution test in mice. The format is in vivo. The settings on record: IV 10 mg/kg; for AUC(0-inf) / AUC(0-t) / MRT / half-life: mouse; for half-life: read-out: T½ (converted). How it is done: Mice were weighed and dosed, and about 50 μL of whole blood was collected from the orbital venous plexus at 5 min, 0.25 h, 0.5 h, 1 h, 2 h, 4 h, 6 h, 8 h, and 24 h after administration, using EDTA-K2 as anticoagulant. At the same time, the animals were euthanized, and the brains were removed, and the brain tissue samples were stored in a −80° C. refrigerator until analysis. The blood samples were centrifuged at 4000 rpm for 10 min at 4° C., and 20 μL of the supernatant plasma sample was taken into an EP tube and immediately stored in a −80° C. refrigerator until analysis. 10 μL of the plasma sample was transferred to a 96-well plate and 250 μL of acetonitrile (containing internal standard) was added to precipitate proteins. The samples were centrifuged at 4000 rpm/min for 20 min in a 4° C. centrifuge. The supernatant was transferred and injected into LC MS/MS to detect the drug concentration. The brain tissue samples were weighed and homogenized with 4 times ice-cold PBS, and 50 μL of the brain tissue homogenate was transferred to a 96-well plate. 500 μL of acetonitrile (containing internal standard) was added to precipitate the protein. The samples were centrifuged at 4000 rpm/min for 20 min in a 4° C. centrifuge. 380 μL of the supernatant was transferred to a new 96-well plate and 380 μL of 0.1% formic acid in water was added and mixed thoroughly. 10 μL of the sample was taken and injected into LC MS/MS to detect the drug concentration. The data were processed by Thermo LC Quan software, and the standard curve was established using the internal standard method, with the theoretical standard curve concentration as the abscissa and the peak area ratio as the ordinate (test compound peak area/internal standard peak area). Sample concentrations were calculated using the standard curve. The pharmacokinetic parameters were calculated using WinNonlin 8.2 software.

The test system of series [3] is mino cells. The experiment in a line: Activity test in Mino cells (CCK8 proliferation inhibition). The format is cell-based. The settings on record: 3 days, read-out: Cell inhibition IC50. Here is the method:
Cell culture: mino cells (culture conditions: RPMI1640 medium+15% FBS, 37° C., 5% CO2). Cell plating: The cells subcultured into the logarithmic growth phase were collected and transferred into a centrifuge tube, and centrifuged at 800 rpm for 5 min. The cells were resuspended in complete medium and counted. The cells were diluted and adjusted to a final concentration of 200000 cells/mL. The cells were then seeded into a 96-well plate with 100 μL per well. Cell administration: Each group of drug solutions was added into the 96-well plate, 100 μL per well, n=3 for each drug concentration. Meanwhile, negative wells (n=6) and blank wells (n=3) were set up. The 96-well plate was incubated in the incubator for further 3 days. CCK8 reagent was added to the 96-well plate, 20 μL per well, and then the plate was placed in the incubator for further 4 h. The absorbance of the solution was measured at a wavelength of 450 nm using an enzyme reader. The proliferation inhibition rate was calculated and the half inhibitory concentration IC50 value was calculated.

As for `C=CC(=O)N1CCC[C@@H](n2nc(-c3ccc(Oc4ccccc4)cc3)c3c(N)ncnc32)C1` [Ibrutinib, ibrutinib, reference compound], in series [1] (50 mg/kg), the “TGITV (Relative tumor volume inhibition rate)” value is recorded as 40.73% and the Tumor volume was found to be 3018.11 ± 1293.65 mm^3.
Regarding `COc1ccc(F)cc1C(=O)NCc1ccc(-c2nc(-c3ccc(N4CCN(CC5CCN(c6ccc(C7CCC(=O)NC7=O)cc6)CC5)CC4)cc3)n3ccnc(N)c23)cc1` (stereo not drawn) [Compound I-18], the “B/P Ratio AUC (brain)/AUC (plasma)” value in series [2] is 6.86% ± 0.01. Also, in series [2] (brain), the AUC(0-inf) stood at 2710 ± 149 ng·h/mL, the AUC(0-t) is 2270 ± 126 ng·h/mL, the MRT turned out to be 7.17 ± 0.59 h and the half-life is 563 ± 182 min. Moreover, in series [2] (plasma), the AUC(0-inf) was 39800 ± 4460 ng·h/mL, the AUC(0-t) was 39100 ± 5080 ng·h/mL, the MRT was 4.88 ± 0.14 h and the half-life is 266 ± 82.8 min. The IC50 in series [3] (Homo sapiens, 72 h) was under 25 nM.
Consider `COc1ccc(F)cc1C(=O)NCc1ccc(-c2nn(-c3ccc(N4CCN(CC5CCN(c6ccc(N7CCC(=O)NC7=O)cc6)CC5)CC4)nc3)c3ncnc(N)c23)cc1` [Compound I-3, N-(4-(4-amino-1-(6-(4-((1-(4-(2,4-dioxotetrahydropyrimidin-1(2H)-yl)phenyl)piperidin-4-yl)methyl)piperazin-1-yl)pyridin-3-yl)-1H-pyrazolo[3,4-d]pyrimidin-3-yl)benzyl)-5-fluoro-2-methoxybenzamide], for which the IC50 in series [3] (Homo sapiens, 72 h) was 16 nM.
Still for that read-out and setting: in the case of `Nc1ncnc2c1c(-c1ccc(Oc3ccccc3)cc1)nn2-c1ccc(N2CCC(CN3CCN(c4ccc5c(c4)C(=O)N(C4CCC(=O)NC4=O)C5=O)CC3)CC2)nc1` (stereo not drawn) [II-37, 5-(4-((1-(5-(4-amino-3-(4-phenoxyphenyl)-1H-pyrazolo[3,4-d]pyrimidin-1-yl)pyridin-2-yl)piperidin-4-yl)methyl)piperazin-1-yl)-2-(2,6-dioxopiperidin-3-yl) isoindoline-1,3-dione] it was under 25 nM; in that of `COc1ccc(F)cc1C(=O)NCc1ccc(-c2nn(-c3ccc(N4CCN(CC5CCN(c6ccc7c(c6)C(=O)N(C6CCC(=O)NC6=O)C7=O)CC5)CC4)nc3)c3ncnc(N)c23)cc1C` (stereo not drawn) [II-6, N-(4-(4-amino-1-(6-(4-((1-(2-(2,6-dioxopiperidin-3-yl)-1,3-dioxoisoindol-5-yl)piperidin-4-yl)methyl)piperazin-1-yl)pyridin-3-yl)-1H-pyrazolo[3,4-d]pyrimidin-3-yl)-2-methylbenzyl)-5-fluoro-2-methoxybenzamide], 21 nM; in that of `COc1ccc(F)cc1C(=O)NCc1ccc(-c2nn(-c3ccc(N4CCN(CC5CCN(c6ccc7c(c6)CN(C6CCC(=O)NC6=O)C7=O)CC5)CC4)nc3)c3ccnc(N)c23)cc1` (stereo not drawn) [II-12, N-(4-(4-amino-1-(6-(4-((1-(2-(2,6-dioxopiperidin-3-yl)-1-oxoisoindol-5-yl)piperidin-4-yl)methyl)piperazin-1-yl)pyridin-3-yl)-1H-pyrazolo[4,3-c]pyridin-3-yl)benzyl)-5-fluoro-2-methoxybenzamide], under 500 nM.
Same read-out and setting: in the case of `Nc1ncnc2c1c(-c1ccc(Oc3ccccc3)cc1)nn2-c1ccc(N2CCN(C[C@@H]3CCCC[C@H]3CN3CCN(c4ccc5c(c4)CN(C4CCC(=O)NC4=O)C5=O)CC3)CC2)nc1` (stereo partly drawn) [III-19, 3-(5-(4-(((1R,2R)-2-((4-(5-(4-amino-3-(4-phenoxyphenyl)-1H-pyrazolo[3,4-d]pyrimidin-1-yl)pyridin-2-yl)piperazin-1-yl)methyl)cyclohexyl)methyl)piperazin-1-yl)-1-oxoisoindolin-2-yl)piperidine-2,6-dione] it was under 100 nM; in that of `Cc1cc(N2CCC(CN3CCN(c4ccc(-c5nc(-c6ccc(Oc7ccccc7)cc6)c6c(N)nccn56)cn4)CC3)CC2)ccc1N1CCC(=O)NC1=O` [Compound I-54, 1-(4-(4-((4-(5-(8-amino-1-(4-phenoxyphenyl)imidazo[1,5-a]pyrazin-3-yl)pyridin-2-yl)piperazin-1-yl)methyl)piperidin-1-yl)-2-methylphenyl)dihydropyrimidine-2,4(1H,3H)-dione], under 50 nM; in that of `COc1ccc(F)cc1C(=O)NCc1ccc(-c2nc(-c3ccc(N4CCN(CC5CCN(c6ccc(N7CCC(=O)NC7=O)c(C)c6)CC5)CC4)cc3)n3ccnc(N)c23)c(F)c1` [Compound I-47], under 25 nM.
On to `COc1ccc(F)cc1C(=O)NCc1ccc(-c2nn(-c3ccc(C4CCN(CC5CCN(c6ccc(N7CCC(=O)NC7=O)c(C)c6)CC5)CC4)cc3)c3ncnc(N)c23)cc1` [Compound I-5, N-(4-(4-amino-1-(4-(1-((1-(4-(2,4-dioxotetrahydropyrimidin-1(2H)-yl)-3-methylphenyl)piperidin-4-yl)methyl)piperidinyl)phenyl)-1H-pyrazolo[3,4-d]pyrimidin-3-yl)benzyl)-5-fluoro-2-methoxybenzamide], for which the IC50 in series [3] (Homo sapiens, 72 h) was 84 nM.
With `COc1ccc(F)cc1C(=O)NCc1ccc(-n2c(=O)n(-c3ccc(N4CCN(CC5CCN(c6ccc7c(c6)CN(C6CCC(=O)NC6=O)C7=O)CC5)CC4)cc3)c3ccnc(N)c32)cc1` (stereo not drawn) [II-24, N-(4-(4-amino-1-(4-(-4-((1-(2-(2,6-dioxopiperidin-3-yl)-1-oxoisoindol-5-yl)piperidin-4-yl)methyl)piperazin-1-yl)phenyl)-2-oxo-1,2-dihydro-3H-imidazo[4,5-c]pyridin-3-yl)benzyl)-5-fluoro-2-methoxybenzamide], the IC50 in series [3] (Homo sapiens, 72 h) is under 50 nM.
As to `COc1ccc(F)cc1C(=O)NCc1ccc(-c2nn(-c3ccc(N4CCN(CC5CCN(c6ccc7c(c6)CN(C6CCC(=O)NC6=O)C7=O)CC5)CC4)nc3)c3ncnc(N)c23)cc1C` (stereo not drawn) [II-2, N-(4-(4-amino-1-(6-(4-((1-(2-(2,6-dioxopiperidin-3-yl)-1-oxoisoindolin-5-yl)piperidin-4-yl)methyl)piperazin-1-yl)pyridin-3-yl)-1H-pyrazolo[3,4-d]pyrimidin-3-yl)-2-methylbenzyl)-5-fluoro-2-methoxybenzamide], the IC50 in series [3] (Homo sapiens, 72 h) is 17 nM.
On the same count and under the same terms, in the case of `CCc1cc(-c2nc(-c3ccc(CNC(=O)c4cc(F)ccc4OC)cc3)c3c(N)nccn23)ccc1N1CCN(CC2CCN(c3ccc(N4CCC(=O)NC4=O)c(C)c3)CC2)CC1` [Compound I-49] it was under 100 nM.
As for `COc1ccc(F)cc1C(=O)NCc1ccc(-c2nn(-c3ccc(N4CCN(CC5CCN(c6ccc(N7CCC(=O)NC7=O)c(C)c6)CC5)CC4)nc3)c3ncnc(N)c23)cc1C` [Compound I-4], the 50% inhibitory concentration (IC50) in series [3] is 62 nM.
As for `Cc1cc(N2CCC(CN3CCN(c4ccc(-n5nc(-c6ccc(Oc7ccccc7)cc6)c6c(N)ncnc65)cc4)CC3)CC2)ccc1N1CCC(=O)NC1=O` [Compound I-55], the IC50 in series [3] (Homo sapiens, 72 h) is under 100 nM.
On to `COc1ccc(F)cc1C(=O)NCc1ccc(-c2nc(-c3ccc(N4CCN(CC5CCN(c6ccc(N7CCC(=O)NC7=O)c(C)c6)CC5)CC4)cc3)n3ccnc(N)c23)cc1` [Compound I-40], for which, in series [1] (30 mg/kg), the “TGITV (Relative tumor volume inhibition rate)” value is reported as 76.65% and the Tumor volume turned out to be 1146.34 ± 435.82 mm^3. Further, the IC50 in series [3] (Homo sapiens, 72 h) was under 25 nM.
For the compound `COc1ccc(F)cc1C(=O)NCc1ccc(-c2nn(-c3ccc(N4CCN(CC5CCN(c6ccc(N7CCC(=O)NC7=O)c(C)c6)CC5)C[C@H]4C)nc3)c3ncnc(N)c23)cc1` [Compound I-41], the IC50 in series [3] (Homo sapiens, 72 h) was under 25 nM.
Take `COc1ccc(F)cc1C(=O)NCc1ccc(-c2nn(-c3ccc(C4CCN(CC5CCN(c6ccc(N7CCC(=O)NC7=O)c(C)c6)CC5)CC4)cc3)c3ncnc(N)c23)cc1F` [Compound I-44, N-(4-(4-amino-1-(4-(1-((1-(4-(2,4-dioxotetrahydropyrimidin-1(2H)-yl)-3-methylphenyl)piperidin-4-yl)methyl)piperidinyl)phenyl)-1H-pyrazolo[3,4-d]pyrimidin-3-yl)-2-fluorobenzyl)-5-fluoro-2-methoxybenzamide]: the IC50 in series [3] (Homo sapiens, 72 h) is under 25 nM.
